Calls of active or inactive are those of the source. The rule behind the calls is not given here.
What was measured:
Acetylcholinesterase [1] = biological target: T1, Acetylcholinesterase (Homo sapiens, UniProt P22303); test: Inhibition of human erythrocyte AChE using acetylthiocholine iodide as substrate preincubated for 6 mins followed by substrate addition measured up to 180 secs by Ellman's method
[2] = biological target: BuChE (butyrylcholinesterase) (Homo sapiens, UniProt P06276); test: Inhibition of human serum BuChE at 10 uM using S-butyrylthiocholine iodide as substrate preincubated for 6 mins followed by substrate addition measured up to 180 secs by Ellman's method relative to control; details: probe S-butyrylthiocholine iodide
Acetylcholinesterase [3] = biological target: T1, Acetylcholinesterase; test: Inhibition of human erythrocyte AChE at 10 uM using acetylthiocholine iodide as substrate preincubated for 6 mins followed by substrate addition measured up to 180 secs by Ellman's method relative to control
Acetylcholinesterase [4] = biological target: T1, Acetylcholinesterase; test: Potency index, ratio of donepenzil IC50 to compound IC50 for human erythrocyte AChE
Acetylcholinesterase [5] = biological target: T1, Acetylcholinesterase; test: […] inhibition of human erythrocyte AChE using acetylthiocholine iodide as substrate preincubated for 6 mins followed by substrate addition measured up to 180 secs by Lineweaver-Burk plot analysis
[6] = Metal chelating activity assessed as compound-Fe3+ complex formation at 25 uM by UV-Vis spectrophotometry
[7] = Metal chelating activity assessed as association constant for compound-Fe3+ complex formation by Job's plot analysis
[8] = Cytotoxicity against human SH-SY5Y cells assessed as cell viability at 12.5 uM after 24 hrs by MTT assay relative to control; format: cell-based; details: read-out: Activity
[9] = Cytotoxicity against human SH-SY5Y cells assessed as cell viability at 25 uM after 24 hrs by MTT assay relative to control; format: cell-based; details: read-out: Activity
[10] = Cytotoxicity against human SH-SY5Y cells assessed as cell viability at 50 uM after 24 hrs by MTT assay relative to control; format: cell-based; details: read-out: Activity
[11] = Cytotoxicity against human SH-SY5Y cells assessed as cell viability at 100 uM after 24 hrs by MTT assay relative to control; format: cell-based; details: read-out: Activity
Mus musculus [12] = test: Toxicity in Kunming mouse assessed as change in water consumption at 1000 mg/kg, po observed continuously for the first 4 hrs and intermittently for next 24 hrs and occasionally thereafter for 14 days; format: organism-based; details: in vivo
Mus musculus [13] = test: Toxicity in Kunming mouse assessed as change in food consumption at 1000 mg/kg, po observed continuously for the first 4 hrs and intermittently for next 24 hrs and occasionally thereafter for 14 days; format: organism-based; details: in vivo
Mus musculus [14] = test: Toxicity in Kunming mouse assessed as reduction in body weight at 1000 mg/kg, po observed continuously for the first 4 hrs and intermittently for next 24 hrs and occasionally thereafter for 14 days; format: organism-based; details: in vivo
Mus musculus [15] = test: Toxicity in Kunming mouse assessed as death at 1000 mg/kg, po observed continuously for the first 4 hrs and intermittently for next 24 hrs and occasionally thereafter for 14 days; format: organism-based; details: in vivo
Mus musculus [16] = test: Cardiotoxicity in Kunming mouse at 1000 mg/kg, po measured at day 14 by microscopic analysis; format: toxicity, organism-based; details: in vivo
Mus musculus [17] = test: Hepatotoxicity in Kunming mouse at 1000 mg/kg, po measured at day 14 by microscopic analysis; format: toxicity, organism-based; details: in vivo
Mus musculus [18] = test: Nephrotoxicity in Kunming mouse at 1000 mg/kg, po measured at day 14 by microscopic analysis; format: toxicity, organism-based; details: in vivo
Mus musculus [19] = test: Antialzheimer activity in scopolamine induced po dosed Kunming mouse cognitive deficit model assessed as reduction in latency treated for 1 hr followed by training trial and subsequent addition of scopolamine at 30 mins post trial measured for 24 hrs interval; format: functional, organism-based
Mus musculus [20] = test: Antialzheimer activity in scopolamine induced po dosed Kunming mouse cognitive deficit model assessed as reduction in number of errors treated for 1 hr followed by training trial and subsequent addition of scopolamine at 30 mins post trial measured for 24 hrs interval; format: functional, organism-based
Mus musculus [21] = test: Antialzheimer activity in scopolamine induced Kunming mouse cognitive deficit model assessed as latency time at 20.6 mg/kg, po treated for 1 hr followed by training trial and subsequent addition of scopolamine at 30 mins post trial measured for 24 hrs interval; format: functional
Mus musculus [22] = test: Antialzheimer activity in scopolamine induced Kunming mouse cognitive deficit model assessed as latency time at 10.3 mg/kg, po treated for 1 hr followed by training trial and subsequent addition of scopolamine at 30 mins post trial measured for 24 hrs interval; format: functional
Mus musculus [23] = test: Antialzheimer activity in scopolamine induced Kunming mouse cognitive deficit model assessed as latency time at 5.2 mg/kg, po treated for 1 hr followed by training trial and subsequent addition of scopolamine at 30 mins post trial measured for 24 hrs interval; format: functional
Acetylcholinesterase [24] = biological target: T1, Acetylcholinesterase; test: Mixed type inhibition of human erythrocyte AChE at 12.5 to 50 nM using acetylthiocholine iodide as substrate preincubated for 6 mins followed by substrate addition measured up to 180 secs by Lineweaver-Burk plot analysis
[25] = Metal chelating activity assessed as compound-Cu2+ complex formation at 25 uM by UV-Vis spectrophotometry
[26] = Metal chelating activity assessed as compound-Fe2+ complex formation at 25 uM by UV-Vis spectrophotometry
[27] = Metal chelating activity assessed as compound-Zn2+ complex formation at 25 uM by UV-Vis spectrophotometry
in vitro = details: PAMPA
Description: Effective permeability at 25 ug/ml after 16 hrs by PAMPA

T1 sequence (P22303 whole entry): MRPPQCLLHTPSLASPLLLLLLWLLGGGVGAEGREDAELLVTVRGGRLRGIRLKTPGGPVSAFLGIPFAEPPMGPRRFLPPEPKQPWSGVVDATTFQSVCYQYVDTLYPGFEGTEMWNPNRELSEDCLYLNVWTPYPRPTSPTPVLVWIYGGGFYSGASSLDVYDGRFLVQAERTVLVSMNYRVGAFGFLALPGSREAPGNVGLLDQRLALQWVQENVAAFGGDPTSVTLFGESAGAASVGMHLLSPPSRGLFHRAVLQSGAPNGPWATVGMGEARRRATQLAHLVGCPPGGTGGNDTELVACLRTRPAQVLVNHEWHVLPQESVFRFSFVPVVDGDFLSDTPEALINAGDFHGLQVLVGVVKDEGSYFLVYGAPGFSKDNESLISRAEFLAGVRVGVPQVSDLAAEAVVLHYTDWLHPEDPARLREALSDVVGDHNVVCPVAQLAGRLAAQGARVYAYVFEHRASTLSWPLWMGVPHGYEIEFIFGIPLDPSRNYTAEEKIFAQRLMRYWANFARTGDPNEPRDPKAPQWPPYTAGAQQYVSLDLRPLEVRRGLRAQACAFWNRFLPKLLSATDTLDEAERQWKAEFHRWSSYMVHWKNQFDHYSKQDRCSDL
Chain of BuChE (butyrylcholinesterase) (P06276 whole entry): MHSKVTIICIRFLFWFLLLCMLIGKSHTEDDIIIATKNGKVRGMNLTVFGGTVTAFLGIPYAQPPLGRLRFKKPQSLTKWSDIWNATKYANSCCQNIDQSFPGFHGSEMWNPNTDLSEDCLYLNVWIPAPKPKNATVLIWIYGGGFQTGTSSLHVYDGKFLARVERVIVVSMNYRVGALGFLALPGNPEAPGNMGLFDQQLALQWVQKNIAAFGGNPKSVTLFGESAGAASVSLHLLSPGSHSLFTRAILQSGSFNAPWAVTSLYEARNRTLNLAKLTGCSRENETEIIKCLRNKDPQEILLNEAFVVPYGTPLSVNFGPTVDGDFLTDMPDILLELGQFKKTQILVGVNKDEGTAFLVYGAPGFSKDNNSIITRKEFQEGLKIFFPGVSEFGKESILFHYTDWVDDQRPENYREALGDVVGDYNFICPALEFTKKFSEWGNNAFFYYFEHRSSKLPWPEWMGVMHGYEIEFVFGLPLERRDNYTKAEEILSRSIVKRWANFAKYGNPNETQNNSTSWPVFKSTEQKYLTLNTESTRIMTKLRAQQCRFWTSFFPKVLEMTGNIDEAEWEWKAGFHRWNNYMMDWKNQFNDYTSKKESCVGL

Work on `Cc1cc(=O)oc2cc(OCCCSC(=S)N3CCCCC3)ccc12` yielded an IC50 (Acetylcholinesterase [1]) of 0.29 µM and an inhibition at 0.05 h, 10 µM [2] of 31.2%.
With `Cc1cc(=O)oc2cc(OCCSC(=S)N(CCO)CCO)ccc12` the inhibition (Acetylcholinesterase [3]) was 34.5% and the inhibition at 0.05 h, 10 µM [2] was < 5%.
In the case of `Cc1cc(=O)oc2cc(OCCSC(=S)N3CCC(O)CC3)ccc12`, the inhibition (Acetylcholinesterase [3]) is reported as < 5% and the inhibition at 0.05 h, 10 µM [2] is reported as < 5%.
Work on `Cc1cc(=O)oc2cc(OCCCCCCSC(=S)N3CCCCC3)ccc12` yielded an IC50 (Acetylcholinesterase [1]) of 0.61 µM and an inhibition at 0.05 h, 10 µM [2] of 6.21%.
With `Cc1cc(=O)oc2cc(OCCSC(=S)N3CCN(c4ncccn4)CC3)ccc12` the inhibition (Acetylcholinesterase [3]) was 12.3% and the inhibition at 0.05 h, 10 µM [2] was < 5%.
With `Cc1cc(=O)oc2cc(OCCSC(=S)N3CCN(C4CC4)CC3)ccc12` the inhibition (Acetylcholinesterase [3]) was 18.7% and the inhibition at 0.05 h, 10 µM [2] was < 5%.
With `Cc1cc(=O)oc2cc(OCCCCCSC(=S)N3CCCCC3)ccc12` the IC50 (Acetylcholinesterase [1]) was 0.21 µM and the inhibition at 0.05 h, 10 µM [2] was 10.1%.
For `Cc1cc(=O)oc2cc(OCCSC(=S)N3CCN(C)CC3)ccc12`, the inhibition (Acetylcholinesterase [3]) was 36.8% and the inhibition at 0.05 h, 10 µM [2] was < 5%.
For `Cc1cc(=O)oc2cc(OCCCCCCCCSC(=S)N3CCCCC3)ccc12`, the inhibition (Acetylcholinesterase [3]) was < 5% and the inhibition at 0.05 h, 10 µM [2] was < 5%.
In the case of `Cc1cc(=O)oc2cc(OCCSC(=S)N3CCCCC3)ccc12`, the IC50 (Acetylcholinesterase [1]) is reported as 0.47 µM and the inhibition at 0.05 h, 10 µM [2] is reported as 37.2%.
`Cc1cc(=O)oc2cc(OCCSC(=S)N3CCN(C(C)C)CC3)ccc12` gave an IC50 (Acetylcholinesterase [1]) of 1.99 µM and an inhibition at 0.05 h, 10 µM [2] of 28.1%.
For `Cc1cc(=O)oc2cc(OCCSC(=S)N3CCCC3)ccc12`, the IC50 (Acetylcholinesterase [1]) was 0.89 µM and the inhibition at 0.05 h, 10 µM [2] was < 5%.
For `Cc1cc(=O)oc2cc(OCCCCSC(=S)N3CCCCC3)ccc12`, the IC50 (Acetylcholinesterase [1]) was 0.027 µM, the inhibition at 0.05 h, 10 µM [2] was 15.3% and the Ratio IC50 (Acetylcholinesterase [4]) was 1.5. For the same compound, the Ki (Acetylcholinesterase [5]) was 0.0371 µM, the Activity [6] was “Active” and the Ka [7] was 1.69 ×10³ /M. The viability at 24 h, 12.5 µM [8] was 99.2%, the viability at 24 h, 25 µM [9] was 101% and the viability at 24 h, 50 µM [10] was 90.1%. The viability at 24 h, 100 µM [11] was 80.3%, the Activity (Mus musculus [12]) was “Non-Toxic” and the Activity (Mus musculus [13]) was “Non-Toxic”. For the same compound, the Activity (Mus musculus [14]) was “Non-Toxic”, the Activity (Mus musculus [15]) was “Non-Toxic” and the Activity (Mus musculus [16]) was “Non-Toxic”. The Activity (Mus musculus [17]) was “Non-Toxic”, the Activity (Mus musculus [18]) was “Non-Toxic” and the Activity (Mus musculus [19]) was “Dose-dependent effect”. The Activity (Mus musculus [20]) was “Dose-dependent effect”, the Time (Mus musculus [21]) was 192 s and the Time (Mus musculus [22]) was 182 s. The Time (Mus musculus [23]) was 151 s, the inhibition (Acetylcholinesterase [24]) was “Active” and the Activity [25] was “inactive”. For the same compound, the Activity [26] was “inactive”, the Activity [27] was “inactive” and the Papp at 16 h, 25 ug/ml (in vitro) was 9.21 ×10⁻⁶ cm/s.
For `Cc1cc(=O)oc2cc(OCCSC(=S)N(C)C)ccc12`, the IC50 (Acetylcholinesterase [1]) was 10.6 µM and the inhibition at 0.05 h, 10 µM [2] was < 5%.
`CCN(CC)C(=S)SCCOc1ccc2c(C)cc(=O)oc2c1` showed an IC50 (Acetylcholinesterase [1]) of 1.94 µM and an inhibition at 0.05 h, 10 µM [2] of 10.9%.
In the case of `Cc1cc(=O)oc2cc(OCCSC(=S)N3CCOCC3)ccc12`, the inhibition (Acetylcholinesterase [3]) is reported as 11% and the inhibition at 0.05 h, 10 µM [2] is reported as < 5%.
In the case of `Cc1cc(=O)oc2cc(OCCSC(=S)N3CCC(N4CCCCC4)CC3)ccc12`, the IC50 (Acetylcholinesterase [1]) is reported as 1.16 µM and the inhibition at 0.05 h, 10 µM [2] is reported as 24.3%.

Reference: ChEMBL document CHEMBL4145512, “Design, synthesis and biological evaluation of new coumarin-dithiocarbamate hybrids as multifunctional agents for the treatment of Alzheimer's disease” (Eur J Med Chem, 2018)
